# Earlier results as cited in patent US9603811B2, “Pharmaceutical compositions of carotenoid chylomicrons” (HEALTH-EVER BIOTECH CO. LTD, priority 2013, dated 2017).
# Read-outs that look alike come from different tables or passages of the source.
smiles,measurement,setting,value
CC(C)=CCC/C(C)=C/C=C/C(C)=C/C=C/C(C)=C/C=C/C=C(C)/C=C/C=C(C)/C=C/C=C(\C)CCC=C(C)C [solanorubin],solubility in water,,practically insoluble in water
same,solubility in water,listed as Solanorubin,insoluble in water
